Where two headings read alike, the source gives them in different places.
Columns and labels:
[1] = In vitro human liver microsomal stability assay; assay type: in vitro ADME; settings: human liver microsomes
Description: To predict in vivo metabolism of compounds, the stability of compounds incubated with human liver microsomes in vitro was determined. Human liver microsome preparations were stored at −80° C. and thawed on ice prior to use. The thawed microsomes were diluted to a concentration of 2 mg/mL in 50 mM sodium phosphate, pH 7.4. Reference and test compounds were prepared as 10 mM stocks in 100% DMSO and diluted to 1 mM in acetonitrile before use. Each compound was tested in triplicate as follows:
4 μL of test or reference compound was added to a well of a 24-well microplate and 0.5 mL of 4 mM NADPH added. The plate was then transferred to a shaker for 10 minutes at room temperature. 30 μL of the compound/NADPH solution was transferred to the well of a 96-well microplate and incubated at 37° C. for 5 minutes. 30 μL of human liver microsomes (pre-incubated at 37° C. for 5 minutes) was added to the well containing the compound/NADPH solution and the plate incubated for the selected period of time (typically 0 or 30 minutes). The reaction was stopped by adding 60 μL of ice cold […] trichloroacetic acid. The plate was centrifuged at 1000 rpm for 5 minutes at room temperature and the supernatant transferred to the well of a new 96-well V-bottomed microplate for mass spectrometric analysis.
Samples were analyzed by TSQ Quantum Discovery Tandem Mass Spectrometer and Surveyor Liquid Chromatogram (Thermo, Hemel-Hempstead, UK). 10 μL of each sample was injected in a mobile phase consisting of 60%:40% methanol:5 mM ammonium acetate at a flow rate of 0.5 mL/minute. The column used was a BDS hypersil, C18, 50×2.1 mm with a 5 μm particle size.
Each compound was tuned with a spray voltage of 3000 V and a capillary temperature of 300° C. and values for tube lens, CID and product ions were determined.
The peak area for each compound was measured in triplicate for the 0 and 30 minute samples and the average of each was reported. The percentage remaining after 30 minutes was calculated as the average peak area of the sample after 30 minutes divided by the average peak area at 0 minutes. The RSD was 10% or lower for each compound.

human 11β-HSD1 = target: T1, human 11β-HSD1 (Homo sapiens, UniProt P28845); experiment: Cellular in vitro 11β-HSD1 enzyme inhibition assay (SPA, HEK293/11β-HSD1 cells); assay type: cell-based
T1 construct: stably transfected with a construct containing the full-length gene coding for the human 11β-HSD1 enzyme; expressed in transfected cells; host or cells: HEK293 (stably transfected, HEK293/11β-HSD1)
Description: Compounds were assessed by a Scintillation Proximity Assay (SPA) performed according to the following protocol:
HEK293 cells were stably transfected with a construct containing the full-length gene coding for the human 11β-HSD1 enzyme to create HEK293/11β-HSD1 cells. Cells were routinely cultured in DMEM containing 10% calf foetal serum, 1% glutamine, and 1% penicillin and streptomycin. Prior to assay, cells were plated at 2×10^4 cells/well in 96-well poly-D-Lys coated flat-bottomed microplates and incubated in 5% CO2, 95% O2 at 37° C. for 24 hours. The media in each well was removed immediately before assay.
Compounds to be tested were dissolved in DMSO at 10 mM and serially diluted into water containing 10% DMSO. Diluted compounds at a volume of 10 μL were added to wells of a 96-well V-bottomed microplate. A solution of DMEM, 1% glutamine, 1% penicillin and streptomycin, and 22 nM tritiated cortisone was prepared and 90 μL added to each well of the assay plate. This solution (100 μL/well) was transferred to the plate containing the cells. The plate was then incubated in 5% CO2, 95% O2 at 37° C. for 2 hours.
Following this incubation, 50 μL of the assay solution was transferred to each well of a 96-well scintillation microplate. A mixture consisting of anti-mouse YSi SPA beads, pre-mixed with anti-cortisol antibody in assay buffer (50 mM Tris.HCl, pH 7.0; 300 mM NaCl; 1 mM EDTA, 5% glycerol) was prepared and 50 μL added to each well of the scintillation microplate. An adhesive strip was applied to the microplate and the plate gently shaken for at least 2 hours at room temperature, and then spun briefly on a low speed centrifuge. The plate was read on a scintillation counter suitable for 96-well microplates. For the calculation of percentage inhibition, a series of wells were added to the plate that represented the assay maximum and the assay minimum: one set that contained substrate without cells (minimum) and another set that contained substrate and cells without any compound (maximum).
The calculation of median inhibitory concentration (IC50) values for the compounds was performed using GraphPad Prism® software. Dose-response curves for each compound were plotted as fractional inhibition and data fitted to the four parameter logistic equation.

Pharmacokinetics in rat = assay type: in vivo, male Sprague Dawley rats; settings: male, Sprague Dawley, intravenous 1 mg/kg and oral 5 mg/kg; for bioavailability: blood, read-out: % F (% bioavailability); for clearance: plasma, read-out: Cl (plasma clearance)
Description: The pharmacokinetic parameters of certain compounds were determined following intravenous (1 mg/kg) and oral (5 mg/kg) administration to male Sprague Dawley rats. Dosing solution was prepared by mixing each compound with 2% DMSO, 38% PEG-400 and 60% (0.9%) NaCl. Solutions were passed through 0.2 μm filters prior to administration.
Following dosing and at appropriate time points, blood samples were taken from a lateral tail vein and transferred into a tube pre-treated with EDTA. Blood samples were analysed for parent compound by LCMS and the quantity of parent compound remaining determined. Non-compartmental analysis was applied to the data using WinNonlin™ software to determine the pharmacokinetic parameters for each compound.

[2] = HEK293, potency groups, read-out: IC50 for 11β-HSD1 (HEK293)
[3] = HEK293 cells transfected with human 11β-HSD1, first value in cell, read-out: IC50 for 11β-HSD1 (HEK293)
[4] = HEK293 cells, value marked * in brackets, read-out: IC50 for 11β-HSD1 (HEK293), (*) average of at least two individual experiments

T1 sequence (P28845 whole entry): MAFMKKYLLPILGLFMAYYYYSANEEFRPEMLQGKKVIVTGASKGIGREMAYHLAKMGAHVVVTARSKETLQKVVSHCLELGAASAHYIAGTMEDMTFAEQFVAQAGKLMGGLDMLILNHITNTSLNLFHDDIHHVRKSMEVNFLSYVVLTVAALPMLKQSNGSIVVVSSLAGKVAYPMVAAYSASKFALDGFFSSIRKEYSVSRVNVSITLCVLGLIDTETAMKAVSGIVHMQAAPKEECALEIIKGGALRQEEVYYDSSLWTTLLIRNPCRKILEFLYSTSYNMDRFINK

| SMILES | % Parent Remaining at 30 min [1] | IC50 (human 11β-HSD1; [2]) [nM] | IC50 (human 11β-HSD1; [3]) [nM] | IC50 (human 11β-HSD1; [4]) [nM] | bioavailability (Pharmacokinetics in rat) [%] | clearance (Pharmacokinetics in rat) [mL/min/kg] |
| --- | --- | --- | --- | --- | --- | --- |
| O=C(c1csc(-c2cn[nH]c2)c1)N1C2CCC1CC(O)(c1ncccn1)C2 (stereo not drawn) [XX-20, (3-Hydroxy-3-pyrimidin-2-yl-8-aza-bicyclo[3.2.1]oct-8-yl)-[5-(1H-pyrazol-4-yl)-thiophen-3-yl]-methanone] | +++ (61-100% +++) | ≤ 100 | 67 | 42 | 41 to 100 | < 25 |
| O=C(c1csc(-c2cn[nH]c2)c1)N1C2CCC1CC(O)(c1nccs1)C2 (stereo not drawn) [XX-29] | +++ (61-100% +++) | ≤ 100 | 33 | 31 | 41 to 100 | < 25 |
